In patent publication US9518046B2 (Calitor Sciences, LLC, priority 2015, dated 2016) one finds CL/F data, which are given here for 31 compounds.

The nature of this data set: Pharmacokinetics after intravenous and oral administration in rats. In kind it is in vivo. As to conditions: Rats; iv dosing; dose 1 mg/kg (0.5 for Ex. 1, 10, 11, 35; 0.48 for Ex. 24). Here is the method: The LC/MS/MS system used in the analysis consists of an Agilent 1200 Series vacuum degasser, binary pump, well-plate autosampler, thermostatted column compartment, the Agilent G6430 Triple Quadrupole Mass Spectrometer with an electrosprayionization (ESI) source. Quantitative analysis was carried out using MRM mode. The parameters for MRM transitions are in the Table A.
An Agilent XDB-C18, 2.1×30 mm, 3.5 M column was used for the analysis. 5 L of the samples were injected. Analysis condition: The mobile phase was 0.1% formic acid in water (A) and 0.1% formic acid in methanol (B). The flow rate was 0.4 mL/min. And the gradient of Mobile phase was in the Table B.
Alternatively, an Agilent 6330 series LC/MS/MS spectrometer equipped with G1312A binary pumps, a G1367A autosampler and a G1314C UV detector were used in the analysis. An ESI source was used on the LC/MS/MS spectrometer. The analysis was done in positive ion mode as appropriate and the MRM transition for each analyte was optimized using standard solution. A Capcell MP-C18 100×4.6 mm I.D., […] column (Phenomenex, Torrance, Calif., USA) was used during the analysis. The mobile phase was 5 mM ammonia acetate, 0.1% MeOH in water (A): 5 mM ammonia acetate, 0.1% MeOH in acetonitrile (B) (70:30, v/v). The flow rate was 0.6 mL/min. Column was maintained at ambient temperature. 20 μL of the samples were injected.
The compounds disclosed herein are assessed in pharmacokinetic studies in mice, rats, dogs or monkeys. The compounds are administered as a water solution, 2% HPMC+1% TWEEN®80 in water solution, 5% DMSO+5% solutol in saline, 4% MC suspension or capsule. For the intravenous administration, the animals are generally given at 1 or 2 mg/kg dose. For the oral (p.o.) dosing, mice and rats are generally given 5 or 10 mg/kg dose, and dogs and monkeys are generally given 10 mg/kg dose. The blood samples (0.3 mL) are drawn at 0.25, 0.5, 1.0, 2.0, 3.0, 4.0, 6.0, 8.0, 12 and 24 h time points or 0.083, 0.25, 0.5, 1.0, 2.0, 4.0, 6.0, 8.0 and 24 h time points and centrifuged at 3,000 or 4000 rpm for 2 to 10 min. The plasma solutions are collected, stored at −20° C. or −70° C. until analyzed by LC/MS/MS as described above.

On to `CC[C@H](Nc1ncnc(N)c1-c1noc(C)n1)c1nc2cccc(C)c2c(=O)n1C1CC1`, for which the apparent clearance CL/F (in general, the apparent clearance, not corrected for the fraction that reaches the circulation) turned out to be 40.3 mL/min/kg.

As to `CC[C@H](Nc1ncnc(N)c1-c1noc(C)n1)c1nc2ccccc2c(=O)n1-c1ccccc1F`, the apparent clearance (CL/F) came to 118 mL/min/kg.

In turn, `CC[C@H](Nc1ncnc(N)c1-c1noc(C)n1)c1nc2cccc(C)c2c(=O)n1-c1ccccc1C` (single isomer, unassigned) [Ex. 15] had an apparent clearance (CL/F) of 74.2 mL/min/kg.

`CC[C@H](Nc1ncnc(N)c1-c1nc(C)no1)c1nc2ccccc2c(=O)n1-c1ccccc1F` (single isomer, unassigned) [Ex. 22] displayed an apparent clearance CL/F of 159 mL/min/kg.

Take `CC[C@H](Nc1ncnc(N)c1-c1nnc(C)o1)c1nc2ccccc2c(=O)n1-c1ccccc1F` (single isomer, unassigned) [Ex. 24]: the CL/F stood at 70.5 mL/min/kg.

Compound `CC[C@H](Nc1ncnc(N)c1-c1nc(C)no1)c1nc2cccc(C)c2c(=O)n1-c1ccccc1C` (single isomer, unassigned) [Ex. 27] yielded a CL/F of 61.7 mL/min/kg.

Compound `CC[C@H](Nc1ncnc(N)c1-c1ncc(C)o1)c1nc2cccc(C)c2c(=O)n1-c1ccccc1C` (single isomer, unassigned) [Ex. 28] came in with a CL/F of 61.2 mL/min/kg.

With `CC[C@H](Nc1ncnc(N)c1-c1nc(C)co1)c1nc2cccc(C)c2c(=O)n1-c1ccccc1C` (single isomer, unassigned) [Ex. 29], the CL/F was 130 mL/min/kg.

As for `CC[C@H](Nc1ncnc(N)c1-c1ncn(C)n1)c1nc2cccc(C)c2c(=O)n1-c1ccccc1C` (single isomer, unassigned) [Ex. 30], the CL/F was 70.5 mL/min/kg. This CL/F lies about 1.8-fold lower than the previous one.

`CC[C@H](Nc1ncnc(N)c1-c1nnc(C)o1)c1nc2cccc(C)c2c(=O)n1-c1ccccc1C` (single isomer, unassigned) [Ex. 31] showed an apparent clearance CL/F of 64.8 mL/min/kg.

On to `CC[C@H](Nc1ncnc(N)c1-c1ncn(C)n1)c1nc2cccc(Cl)c2c(=O)n1-c1ccccc1F` (single isomer, unassigned) [Ex. 45], for which the CL/F worked out at 61.8 mL/min/kg. The CL/F values of the last two compounds are within 1.5-fold of each other.

On to `CC[C@H](Nc1ncnc(N)c1-c1nnc(C)o1)c1nc2cccc(Cl)c2c(=O)n1-c1ccccc1` [Ex. 1, (S)-2-(1-((6-amino-5-(5-methyl-1,3,4-oxadiazol-2-yl)pyrimidin-4-yl)amino)-propyl)-5-chloro-3-phenylquinazolin-4(3H)-one], for which the apparent clearance (CL/F) was 47.3 mL/min/kg.

The compound `CC[C@H](Nc1ncnc(N)c1-c1nnc(C)o1)c1nc2cccc(Cl)c2c(=O)n1C1CC1` [Ex. 2, (S)-2-(1-((6-amino-5-(5-methyl-1,3,4-oxadiazol-2-yl)pyrimidin-4-yl)amino)-propyl)-5-chloro-3-cyclopropylquinazolin-4(3H)-one] returned a CL/F of 41.2 mL/min/kg.

With `CC[C@H](Nc1ncnc(N)c1-c1nc(C)no1)c1nc2cccc(Cl)c2c(=O)n1-c1ccccc1` [Ex. 3, (S)-2-(1-((6-amino-5-(3-methyl-1,2,4-oxadiazol-5-yl)pyrimidin-4-yl)amino)-propyl) 5-chloro-3-phenylquinazolin-4(3H)-one], the apparent clearance CL/F worked out at 70.8 mL/min/kg.

Regarding `CC[C@H](Nc1ncnc(N)c1C1=N[C@@H](C)CO1)c1nc2cccc(Cl)c2c(=O)n1C1CC1` [Ex. 5, 2-((S)-1-((6-amino-5-((S)-4-methyl-4,5-dihydrooxazol-2-yl)pyrimidin-4-yl)amino)propyl)-5-chloro-3-cyclopropylquinazolin-4(3H)-one], the apparent clearance CL/F worked out at 59.5 mL/min/kg.

For the compound `CC[C@H](Nc1ncnc(N)c1C1=N[C@@H](C)CO1)c1nc2cccc(Cl)c2c(=O)n1-c1ccccc1` [Ex. 6], the CL/F is 110 mL/min/kg.

`CC[C@H](Nc1ncnc(N)c1-c1ncc(C)o1)c1nc2cccc(Cl)c2c(=O)n1C1CC1` [Ex. 7, (S)-2-(1-((6-amino-5-(5-methyloxazol-2-yl)pyrimidin-4-yl)amino)propyl)-5-chloro-3-cyclopropylquinazolin-4(3H)-one] showed a CL/F of 54.8 mL/min/kg.

`CC[C@H](Nc1ncnc(N)c1-c1ncnn1C)c1nc2cccc(Cl)c2c(=O)n1C1CC1` [Ex. 9, 2-((1S)-1-((6-amino-5-(1-methyl-1H-1,2,4-triazol-5-yl)pyrimidin-4-yl)amino)-propyl)-5-chloro-3-cyclopropylquinazolin-4(3H)-one] yielded an apparent clearance CL/F of 27.3 mL/min/kg. Against the preceding compound, the CL/F is about 2-fold lower.

In turn, `CC[C@H](Nc1ncnc(N)c1-c1ncnn1C)c1nc2cccc(Cl)c2c(=O)n1-c1ccccc1` [Ex. 10, 2-((1S)-1-((6-amino-5-(1-methyl-H-1,2,4-triazol-5-yl)pyrimidin-4-yl)amino)propyl)-5-chloro-3-phenylquinazolin-4(3H)-one] returned an apparent clearance CL/F of 3.5 mL/min/kg.

Turning to `CC[C@H](Nc1ncnc(N)c1-c1ccccn1)c1nc2cccc(Cl)c2c(=O)n1C1CC1` [Ex. 11, (S)-2-(1-((6-amino-5-(pyridin-2-yl)pyrimidin-4-yl)amino)propyl)-5-chloro-3-cyclopropylquinazolin-4(3H)-one], the CL/F stood at 4.83 mL/min/kg.

Compound `CC[C@H](Nc1ncnc(N)c1-c1noc(C)n1)c1nc2cccc(Cl)c2c(=O)n1C1CC1` [Ex. 12, (S)-2-(1-((6-amino-5-(5-methyl-1,2,4-oxadiazol-3-yl)pyrimidin-4-yl)amino)-propyl)-5-chloro-3-cyclopropylquinazolin-4(3H)-one] gave an apparent clearance CL/F of 31.8 mL/min/kg.

In turn, `CC[C@H](Nc1ncnc(N)c1-c1noc(C)n1)c1nc2cccc(Cl)c2c(=O)n1-c1ccccc1` [Ex. 13, (S)-2-(1-((6-amino-5-(5-methyl-1,2,4-oxadiazol-3-yl)pyrimidin-4-yl)amino)-propyl)-5-chloro-3-phenylquinazolin-4(3H)-one] yielded an apparent clearance (CL/F) of 72.5 mL/min/kg.

In the case of `CC[C@H](Nc1ncnc(N)c1-c1ccon1)c1nc2cccc(Cl)c2c(=O)n1C1CC1` [Ex. 14, (S)-2-(1-((6-amino-5-(isoxazol-3-yl)pyrimidin-4-yl)amino)propyl)-5-chloro-3-cyclopropylquinazolin-4(3H)-one], the CL/F stood at 46.7 mL/min/kg. Compared with the last compound, the CL/F is about 1.6-fold lower.

As to `CC[C@H](Nc1ncnc(N)c1-c1noc(C)n1)c1nc2cccc(F)c2c(=O)n1C1CC1` [Ex. 16, (S)-2-(1-((6-amino-5-(5-methyl-1,2,4-oxadiazol-3-yl)pyrimidin-4-yl)amino)-propyl)-3-cyclopropyl-5-fluoroquinazolin-4(3H)-one], the CL/F is 68.7 mL/min/kg.

As to `CC[C@H](Nc1ncnc(N)c1-c1ncn(C)n1)c1nc2cccc(C)c2c(=O)n1C1CC1` [Ex. 18, (S)-2-(1-((6-amino-5-(1-methyl-1H-1,2,4-triazol-3-yl)pyrimidin-4-yl)amino)propyl)-3-cyclopropyl-5-methylquinazolin-4(3H)-one], the CL/F was 54.2 mL/min/kg.

For `CC[C@@H](Nc1ncnc(N)c1-c1nc(C)no1)c1nc2cccc(Cl)c2c(=O)n1C1CC1` [Ex. 19, (R)-2-(1-((6-amino-5-(3-methyl-1,2,4-oxadiazol-5-yl)pyrimidin-4-yl)amino)propyl)-5-chloro-3-cyclopropylquinazolin-4(3H)-one], the CL/F is 127 mL/min/kg.

`CC[C@H](Nc1ncnc(N)c1-c1nnc(C)o1)c1nc2cccc(C)c2c(=O)n1C1CC1` [Ex. 20]: the CL/F was found to be 77.3 mL/min/kg.

For the compound `CC[C@H](Nc1ncnc(N)c1-c1nc(C)no1)c1nc2cccc(C)c2c(=O)n1C1CC1` [Ex. 21, (S)-2-(1-((6-amino-5-(3-methyl-1,2,4-oxadiazol-5-yl)pyrimidin-4-yl)amino)-propyl)-3-cyclopropyl-5-methylquinazolin-4(3H)-one], the apparent clearance (CL/F) was 55.8 mL/min/kg.

For `CC[C@H](Nc1ncnc(N)c1-c1nc(C)no1)c1nc2cccc(F)c2c(=O)n1C1CC1` [Ex. 23, (S)-2-(1-((6-amino-5-(3-methyl-1,2,4-oxadiazol-5-yl)pyrimidin-4-yl)amino)-propyl)-3-cyclopropyl-5-fluoroquinazolin-4(3H)-one], the apparent clearance CL/F was 71.3 mL/min/kg. The CL/F values of the last two compounds are within 1.5-fold of each other.

With `CC[C@H](Nc1ncnc(N)c1-c1nnc(C)o1)c1nc2cccc(F)c2c(=O)n1C1CC1` [Ex. 25, (S)-2-(1-((6-amino-S-(5-methyl-1,3,4-oxadiazol-2-yl)pyrimidin-4-yl)amino)-propyl)-3-cyclopropyl-5-fluoroquinazolin-4(3H)-one], the apparent clearance (CL/F) amounted to 75.7 mL/min/kg.

`CC[C@H](Nc1ncnc(N)c1-c1ncn(C)n1)c1nc2cccc(F)c2c(=O)n1C1CC1` [Ex. 26, (S)-2-(1-((6-amino-5-(1-methyl-1H-1,2,4-triazol-3-yl)pyrimidin-4-yl)amino)propyl)-3-cyclopropyl-5-fluoroquinazolin-4(3H)-one] gave an apparent clearance CL/F of 37 mL/min/kg.
